In patent publication US12054509B2, “Antimicrobial compounds, compositions, and uses thereof” (Lakewood Amedex, Inc., priority 2017, dated 2024):

Key:
E. coli ATCC25922 = test: Urinary tract infection model in Sprague-Dawley rats, transurethral treatment (Example 12); assay type: in vivo; conditions: 60 min
Description: Female Sprague-Dawley rats (n=6/group) are intraurethrally infected with the pre determined inoculum size of E. coli. At the specified time following infection with (depending on the in vivo growth curve), the animals are anaesthetized (ketamine/xylazine) and treated by transurethral administration with neutral saline (group 1), saline pH 3.5 adjusted with phosphoric acid (group 2), test compound Nu-8 pH 3.5 at 103 and 207 mg/kg (groups 3 and 4, respectively). When adjusting pH, the volume of phosphoric acid added are monitored and the final concentration of the pH adjusted dose solution are subsequently determined. The goal is to have the final concentration after pH adjustment within 10% of the desired dose so the final concentration after pH adjustment are reported. Volume of administration will be 300 μL. TABLE 10 (Animal Challenge and Treatment Schedule) summarizes the study groups.
Two hours prior to each infection animals are water deprived. Each animal is infected twice with 24 hrs difference by transurethral administration of 300 μL of bacterial suspension under light ketamine and xylazine anaesthesia. Prior to infection, urine is evacuated by digital pressure, cannula is gently inserted into the bladder via urethra and 300 μL of bacterial suspension is inserted into the bladder. […]

[1] = tested on: methicillin susceptible S. aureus (ATCC 29213); test: Bacterial cytological profiling at pH 4, 5.5, 7 (Example 8), S. aureus; assay type: cell-based; conditions: for cell permeability / cell viability: pH 4
Description: (§1) This bacterial cytological profiling (BCP) investigation uses methods and materials described previously by Nonejuie, P., Burkart, M., Poglianoa, K., Pogiano, J. (2013). Bacterial cytological profiling rapidly identifies the cellular pathways targeted by antibacterial molecules. Proc. Natl. Acad. Sci. U.S.A. 110(40):16169-16174. doi: 10.1073/pnas.1311066110.
For viable cell counts, cells are grown to OD600≈0.4 and diluted 1:1 into buffered or unbuffered media containing various compound concentrations. Samples are then collected and serially diluted (1:10) on a 96 well plate. Five microliters from each well are spotted on LB plates, incubated at 30° C., and viable cells are counted the next day.
Samples are collected at 10, 30, 120, and 240 min of exposure for viable cell count and imaging. For imaging, E. coli and S. aureus 200 μL of treated cells per time point are stained with 0.8 μg/mL FM4-64, 1.5 μg/mL DAPI, and 0.4 μM SYTOXGreen (Molecular Probes/Invitrogen). P. aeruginosa samples are stained 0.4 μM SYTOX Green, 28 μg/mL DAN, and 1 μg/mL FM 4-64. Cells are transferred to an agarose pad (20% LB, 1% agarose) for imaging.
For Nu-3 and Nu-8 stocks (at pH 4, 5.5 and 7), stock concentration is 500 mg/mL. For pH 4, the stocks are prepared by dissolving Nu-3 in 25 mM citrate buffer and Nu-8 in 350 mM citric acid. For pH 5.5, the stocks are prepared by dissolving Nu-3 in 25 mM citric-phosphate and Nu-8 in 25 mM critic. For pH 7, the stocks are prepared by dissolving Nu-3 and Nu-8 in 25 mM Sorensen phosphate buffer. 2×LB (lysogeny broth) solutions are prepared with 50 mM citrate buffer for pH 4, 50 mM citrate-phosphate buffer for pH 5.5, and 50 mM Sorensen phosphate buffer for pH 7.

Haemophilus influenzae = test: MIC at pH 3.5 (CLSI, Mueller-Hinton broth); assay type: cell-based; conditions: 5 isolates
P. aeruginosa K2732 = test: Bacterial cytological profiling (Example 6), P. aeruginosa; assay type: cell-based;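 as to effect on cell envelope: tested at 1 0.5 and 0.25 times MIC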
Description: as §1, with “study” for “investigation”
Wild type strains of E. coli ATCC 25922 or P. aeruginosa K2732 are grown in rich media (unbuffered 2× Lysogeny broth [LB]) at 30 C to an OD600˜0.4. These cultures are then split and each sample treated with the appropriate concentration of Nu-8 in unbuffered or buffered LB (final mixture OD600˜0.1). Cells exposed without Nu-8 are buffered to pH 4 with phosphoric acid.
The BCP is performed in LB media buffered to pH 4. The minimum inhibitory concentration (MIC) is measured for Nu-3, Nu-4, Nu-5, and Nu-8 against each bacterial strain. As one of ordinary skill in the art understands, minimum inhibitory concentrations are the lowest concentration of an antimicrobial that will inhibit the visible growth of a microorganism after overnight incubation. […] Cellular viability is assayed at three time points (5 minutes and 4 and 24 h following the onset of treatment).
For imaging E. coli, treated cells are stained with 1 μg/Ml FM4-64, 2 μg/mL DAPI, and 0.5 μM SYTOXGreen (Molecular Probes/Invitrogen). P. aeruginosa samples are stained 0.5 μM SYTOX Green, 28 μg/mL DAPI, and 4.5 μg/mL FM 4-64. Cells are transferred to an agarose pad (20% LB, 1% agarose) for imaging as described in Pogliano, J., Osborne, N., Sharp, M. D., Abanes-De Mello, A., Perez, A., Sun, Y.-L. and Pogliano, K. (1999), A vital stain for studying membrane dynamics in bacteria: a novel mechanism controlling septation during Bacillus subtilis sporulation. Molecular Microbiology, 31: 1149-1159. doi:10.1046/j.1365-2958.1999.01255.x.

CCCCOP(=O)(O)OC[C@H]1O[C@@H](n2ccc(N)nc2=O)C[C@@H]1OP(=O)(O)OCCCC [Nu-8, sodium ((2R,3S,5R)-5-(4-amino-2-oxopyrimidin-1(2H)-yl)-3-((butoxyoxidophosphor-yl)oxy)tetrahydrofuran-2-yl)methyl butyl phosphate]
mean CFU per mL of bladder tissue (tissue plus urine) (E. coli ATCC25922; 103 mg/kg pH 3.5 transurethral): 5.53 Log 10 CFUs/mL bladder tissue
mean CFU per mL of bladder tissue (tissue plus urine) (E. coli ATCC25922; 207 mg/kg pH 3.5 transurethral): 4.60 Log 10 CFUs/mL bladder tissue
cell permeability ([1]; 125 mg/mL): < 4.3%
cell viability ([1]; 125 mg/mL, by 240 min, from 10^7.5 CFU/mL at study start): 10^3 CFU/mL
cell permeability ([1]; 250 mg/mL): ~60%
cell viability ([1]; 250 mg/mL, within 10 min): ~10^4 CFU/mL
cell growth ([1]; pH 5.5 and 7, 125 mg/mL and 250 mg/mL, up to 24 h): slightly reduce cell growth
MIC (Haemophilus influenzae): 4690 to 9380 µg/mL
effect on cell envelope (P. aeruginosa K2732; BCP): affect the cell envelope
cell membrane permeability (P. aeruginosa K2732; buffered pH 4 or unbuffered LB): increase cell membrane permeability
